Measured values reported in patent publication US20220096454A1, “CARBOXYLIC ACID DERIVATIVES” (Merck Patent GmbH, priority 2018, published 2022).

Tests used:
TNKS2 = molecular target: T1, TNKS2 (Homo sapiens, UniProt Q9H2K2); experiment: TNKS2 activity ELISA (autoparsylation assay); type: biochemical; conditions: GST-tagged Tnks-2 (873-1166 aa), 10 μM bio-NAD, 1 hour at 30° C.
T1 construct: GST-tagged Tnks-2 (873-1166 aa, prepared in-house); made in house
Procedure: (§1) Description of the TNKS1 and TNKS2 ELISA Assay
(§2) Biochemical activity testing of TNKS 1 and 2: activity ELISA (Autoparsylation assay)
(§3) For analysis of autoparsylation activity of TNKS 1 and 2 an activity ELISA is performed: In the first step GST tagged TNKS is captured on a Glutathione coated plate. Then the activity assay with biotinylated NAD is performed in the absence/presence of the compounds. During the enzymatic reaction GST tagged TNKS transfers biotinylated ADP-ribose to itself from biotinylated NAD as co-substrate. For the detection streptavidin-HRP conjugate is added that binds to the biotinylated TNKS and is thereby captured to the plates. The amount of biotinylated resp. autoparsylated TNKS is detected with a luminescence substrate for HRP. The level of the luminescence signal correlates directly with the amount of autoparsylated TNKS and therefore with activity of TNKS.
(§4) The activity ELISA is performed in 384 well Glutathione coated microtiter plates (Express capture Glutathione coated plate, Biocat, Heidelberg, Germany). The plates are pre-equilibrated with PBS. […] The plates are washed 3 times with PBS-Tween-20. The wells are blocked by incubation at room temperature for 20 minutes with 50 μl blocking buffer (PBS, 0.05% Tween-20, 0.5% BSA). Afterwards the plates are washed 3 times with PBS-Tween-20. […] The reaction is stopped by 3 times washing with PBS-Tween-20. For the detection 50 μl of 20 ng/μl Streptavidin, HRP conjugate (MoBiTec, Göttingen, Germany) in PBS/0.05% Tween-20/0.01% BSA are added and the plates are incubated for 30 minutes at room temperature. After three times washing with PBS-Tween-20 50 μl of SuperSignal ELISA Femto Maximum sensitivity substrate solution (ThermoFisherScientific (Pierce), Bonn, Germany) are added. Following a 1 minute incubation at room temperature luminescence signals are measured with an Envision multimode reader (Perkin Elmer LAS Germany GmbH) at 700 nm. The full value used is the inhibitor-free reaction. […] The inhibitory values (IC50) are determined using either the program Symyx Assay Explorer® or Condosseo® from GeneData.

TNKS1 = molecular target: T2, TNKS1 (Homo sapiens, UniProt O95271); experiment: TNKS1 activity ELISA (autoparsylation assay); type: biochemical; conditions: GST-tagged Tnks-1 (1023-1327 aa), 10 μM bio-NAD, 1 hour at 30° C.
T2 construct: GST-tagged Tnks-1 (1023-1327 aa, prepared in-house); made in house
T2 sequence (O95271 1023-1327): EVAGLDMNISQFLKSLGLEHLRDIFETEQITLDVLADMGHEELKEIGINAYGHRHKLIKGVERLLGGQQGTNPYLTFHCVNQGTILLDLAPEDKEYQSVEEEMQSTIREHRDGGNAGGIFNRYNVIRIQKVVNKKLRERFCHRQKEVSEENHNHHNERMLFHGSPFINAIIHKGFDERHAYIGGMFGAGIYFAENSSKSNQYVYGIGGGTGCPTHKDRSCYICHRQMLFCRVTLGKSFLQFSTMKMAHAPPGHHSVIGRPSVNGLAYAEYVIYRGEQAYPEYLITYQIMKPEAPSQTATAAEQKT
Procedure: as §1, §2, §3, §4

Tankyrases = conditions: read-out: EC50 [M] TNKS cellular assay; increase of Axin2 level in colon carcinoma cell line DLD1, 24 hours
Procedure: Measurement of Cellular Inhibition of Tankyrase
Cells of the colon carcinoma cell line DLD1 are plated in 96 well plates with 1.5×10^4 cells per well. Next day, cells are treated with a serial dilution of test compound in seven steps as triplicates with a final DMSO concentration of 0.3%. […] The amount of isolated Axin2 protein is determined in a Luminex^200 machine (Luminex Corporation) according to the manufacturer's instruction by counting 100 events per well. […] As controls cells are treated with solvent alone (neutral control) and with a Tankyrase reference inhibitor IWR-2 (3E−06 M) which refers as control for maximum increase of Axin2. For analysis, the obtained data are normalized against the untreated solvent control and fitted for determination of the EC50 values using the Assay Explorer software (Accelrys).

T1 sequence (Q9H2K2 873-1166): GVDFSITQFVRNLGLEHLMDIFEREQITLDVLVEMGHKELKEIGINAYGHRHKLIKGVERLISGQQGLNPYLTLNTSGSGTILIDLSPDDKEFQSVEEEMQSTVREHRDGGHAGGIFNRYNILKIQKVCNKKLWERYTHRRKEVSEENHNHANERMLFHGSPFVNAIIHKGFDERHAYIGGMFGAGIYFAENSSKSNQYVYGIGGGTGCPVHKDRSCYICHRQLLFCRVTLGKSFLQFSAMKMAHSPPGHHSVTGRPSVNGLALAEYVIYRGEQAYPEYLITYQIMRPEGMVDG

With CN(C(=O)N1CCC(C(=O)c2ccc3cc(C(=O)O)n(C)c3c2)CC1)c1ccc(F)cc1 [Compound C1, 6-{1-[(4-Fluoro-phenyl)-methyl-carbamoyl]-piperidine-4-carbonyl}-1-methyl-1H-indole-2-carboxylic Acid] the IC50 (TNKS2) was 1.1 nM, the IC50 (TNKS1) was 3.5 nM and the EC50 (Tankyrases) was 2.1e-07 M.
Molecule CCN(C(=O)N1CCC(C(=O)c2ccc3cc(C(=O)O)n(C)c3c2)CC1)c1ccc(F)cc1 [Compound C2, 6-{1-[Ethyl-(4-fluoro-phenyl)-carbamoyl]-piperidine-4-carbonyl}-1-methyl-1H-indole-2-carboxylic Acid] has an IC50 (TNKS2) of 0.49 nM, an IC50 (TNKS1) of 0.67 nM and an EC50 (Tankyrases) of 1.9e-08 M.
In the case of COc1ccc(N(C)C(=O)N2CCC(C(=O)c3ccc4cc(C(=O)O)n(C)c4c3)CC2)cc1 [Compound C3, 6-{1-[(4-Methoxy-phenyl)-methyl-carbamoyl]-piperidine-4-carbonyl}-1-methyl-1H-indole-2-carboxylic Acid], the IC50 (TNKS2) is reported as 2.7 nM, the IC50 (TNKS1) is reported as 1.8 nM and the EC50 (Tankyrases) is reported as 1.3e-07 M.
Work on CN(C(=O)N1CCC(C(=O)c2ccc3c(c2)cc(C(=O)O)n3C)CC1)c1ccc(F)cc1 [Compound C5, 5-{1-[(4-Fluoro-phenyl)-methyl-carbamoyl]-piperidine-4-carbonyl}-1-methyl-1H-indole-2-carboxylic acid] yielded an IC50 (TNKS2) of 1.4 nM, an IC50 (TNKS1) of 1 nM and an EC50 (Tankyrases) of 7.4e-08 M.
CCN(C(=O)N1CCC(C(=O)c2ccc3c(c2)cc(C(=O)O)n3C)CC1)c1ccc(F)cc1 [Compound C6, 5-{1-[Ethyl-(4-fluoro-phenyl)-carbamoyl]-piperidine-4-carbonyl}-1-methyl-1H-indole-2-carboxylic Acid] gave an IC50 (TNKS2) of 1.4 nM, an IC50 (TNKS1) of 0.41 nM and an EC50 (Tankyrases) of 5.9e-09 M.
With COc1ccc(N(C)C(=O)N2CCC(C(=O)c3ccc4c(c3)cc(C(=O)O)n4C)CC2)cc1 [Compound C7, 5-{1-[(4-Methoxy-phenyl)-methyl-carbamoyl]-piperidine-4-carbonyl}-1-methyl-1H-indole-2-carboxylic Acid] the IC50 (TNKS2) was 1.3 nM, the IC50 (TNKS1) was 1.3 nM and the EC50 (Tankyrases) was 6.31e-08 M.
Molecule CN(C(=O)N1CCC(C(=O)c2ccc3c(C(=O)O)nn(C)c3c2)CC1)c1ccc(F)cc1 [Compound C9, 6-{1-[(4-Fluoro-phenyl)-methyl-carbamoyl]-piperidine-4-carbonyl}-1-methyl-1H-indazole-3-carboxylic Acid] has an IC50 (TNKS2) of 1.66 nM, an IC50 (TNKS1) of 3.29 nM and an EC50 (Tankyrases) of 4.9e-06 M.
CCN(C(=O)N1CCC(C(=O)c2ccc3c(C(=O)O)nn(C)c3c2)CC1)c1ccc(F)cc1 [Compound C10, 6-{1-[Ethyl-(4-fluoro-phenyl)-carbamoyl]-piperidine-4-carbonyl}-1-methyl-1H-indazole-3-carboxylic Acid] gave an IC50 (TNKS2) of 0.432 nM, an IC50 (TNKS1) of 0.744 nM and an EC50 (Tankyrases) of 4.6e-07 M.
Work on COc1ccc(N(C)C(=O)N2CCC(C(=O)c3ccc4c(C(=O)O)nn(C)c4c3)CC2)cc1 [Compound C11, 6-{1-[(4-Methoxy-phenyl)-methyl-carbamoyl]-piperidine-4-carbonyl}-1-methyl-1H-indazole-3-carboxylic Acid] yielded an IC50 (TNKS2) of 0.74 nM, an IC50 (TNKS1) of 1.4 nM and an EC50 (Tankyrases) of 3.9e-06 M.
In the case of CN(C(=O)N1CCC(C(=O)c2ccc3c(c2)c(C(=O)O)nn3C)CC1)c1ccc(F)cc1 [Compound C13, 5-{1-[(4-Fluoro-phenyl)-methyl-carbamoyl]-piperidine-4-carbonyl}-1-methyl-1H-indazole-3-carboxylic Acid], the IC50 (TNKS2) is reported as 49.9 nM and the IC50 (TNKS1) is reported as 115 nM.
For CCN(C(=O)N1CCC(C(=O)c2ccc3c(c2)c(C(=O)O)nn3C)CC1)c1ccc(F)cc1 [Compound C14, 5-{1-[Ethyl-(4-fluoro-phenyl)-carbamoyl]-piperidine-4-carbonyl}-1-methyl-1H-indazole-3-carboxylic Acid], the IC50 (TNKS2) was 5.91 nM, the IC50 (TNKS1) was 12.4 nM and the EC50 (Tankyrases) was 9.4e-06 M.
COc1ccc(N(C)C(=O)N2CCC(C(=O)c3ccc4c(c3)c(C(=O)O)nn4C)CC2)cc1 [Compound C15, 5-{1-[(4-Methoxy-phenyl)-methyl-carbamoyl]-piperidine-4-carbonyl}-1-methyl-1H-indazole-3-carboxylic Acid] was tested, and the IC50 (TNKS2) was 19 nM, the IC50 (TNKS1) was 43 nM and the EC50 (Tankyrases) was 7.1e-06 M.
With CCN(C(=O)N1CCC(C(=O)c2ccc3c(c2)c(C(=O)O)nn3C)CC1)c1ccc(OC)cc1 [Compound C16, 5-{1-[Ethyl-(4-methoxy-phenyl)-carbamoyl]-piperidine-4-carbonyl}-1-methyl-1H-indazole-3-carboxylic Acid] the IC50 (TNKS2) was 4.5 nM, the IC50 (TNKS1) was 9.7 nM and the EC50 (Tankyrases) was 9.7e-07 M.
With CN(C(=O)N1CCC(C(=O)c2ccc3cnn(C)c3c2)CC1)c1ccc(C(=O)O)cc1 [Compound C17, 4-{Methyl-[4-(1-methyl-1H-indazole-6-carbonyl)-piperidine-1-carbonyl]-amino}-benzoic Acid] the IC50 (TNKS2) was 0.798 nM, the IC50 (TNKS1) was 1.32 nM and the EC50 (Tankyrases) was 2.07e-07 M.
Molecule CN(C(=O)N1CCC(C(=O)c2ccc3cnn(C)c3c2)CC1)c1cccc(C(=O)O)c1 [Compound C19, 3-{Methyl-[4-(1-methyl-1H-indazole-6-carbonyl)-piperidine-1-carbonyl]-amino}-benzoic Acid] has an IC50 (TNKS2) of 1.4 nM, an IC50 (TNKS1) of 2.2 nM and an EC50 (Tankyrases) of 1.4e-06 M.
CCN(C(=O)N1CCC(C(=O)c2ccc3cnn(C)c3c2)CC1)c1cccc(C(=O)O)c1 [Compound C20, 3-{Ethyl-[4-(1-methyl-1H-indazole-6-carbonyl)-piperidine-1-carbonyl]-amino}-benzoic Acid] gave an IC50 (TNKS2) of 0.65 nM, an IC50 (TNKS1) of 0.58 nM and an EC50 (Tankyrases) of 1.93e-07 M.
Molecule CN(C(=O)N1CCC(C(=O)c2ccc3cnn(C)c3c2)CC1)c1ccc(C(=O)O)nc1 [Compound C21, 5-{Methyl-[4-(1-methyl-1H-indazole-6-carbonyl)-piperidine-1-carbonyl]-amino}-pyridine-2-carboxylic Acid] has an IC50 (TNKS2) of 14 nM, an IC50 (TNKS1) of 37 nM and an EC50 (Tankyrases) of 1.5e-05 M.
For CN(C(=O)N1CCC(C(=O)c2ccc3c(cnn3C)c2)CC1)c1ccc(C(=O)O)cc1 [Compound C22, 4-{Methyl-[4-(1-methyl-1H-indazole-5-carbonyl)-piperidine-1-carbonyl]-amino}-benzoic Acid], the IC50 (TNKS2) was 3.9 nM, the IC50 (TNKS1) was 7.6 nM and the EC50 (Tankyrases) was 3.46e-07 M.
For CN(C(=O)N1CCC(C(=O)c2ccc3c(cnn3C)c2)CC1)c1cccc(C(=O)O)c1 [Compound C24, 3-{Methyl-[4-(1-methyl-1H-indazole-5-carbonyl)-piperidine-1-carbonyl]-amino}-benzoic Acid], the IC50 (TNKS2) was 0.63 nM, the IC50 (TNKS1) was 1.3 nM and the EC50 (Tankyrases) was 6.4e-07 M.
For CCN(C(=O)N1CCC(C(=O)c2ccc3c(cnn3C)c2)CC1)c1cccc(C(=O)O)c1 [Compound C25, 3-{Ethyl-[4-(1-methyl-1H-indazole-5-carbonyl)-piperidine-1-carbonyl]-amino}-benzoic Acid], the IC50 (TNKS2) was 0.89 nM, the IC50 (TNKS1) was 1.8 nM and the EC50 (Tankyrases) was 4.87e-08 M.
CN(C(=O)N1CCC(C(=O)c2ccc3ncn(C)c3c2)CC1)c1ccc(C(=O)O)cc1 [Compound C26, 4-{Methyl-[4-(3-methyl-3H-benzoimidazole-5-carbonyl)-piperidine-1-carbonyl]-amino}-benzoic Acid] was tested, and the IC50 (TNKS2) was 0.62 nM, the IC50 (TNKS1) was 1.5 nM and the EC50 (Tankyrases) was 1.1e-06 M.
For CN(C(=O)N1CCC(C(=O)c2ccc3ncn(C)c3c2)CC1)c1cccc(C(=O)O)c1 [Compound C28, 3-{Methyl-[4-(3-methyl-3H-benzimidazole-5-carbonyl)-piperidine-1-carbonyl]-amino}-benzoic Acid], the IC50 (TNKS2) was 23 nM and the IC50 (TNKS1) was 53 nM.
In the case of CCN(C(=O)N1CCC(C(=O)c2ccc3ncn(C)c3c2)CC1)c1cccc(C(=O)O)c1 [Compound C29, 3-{Ethyl-[4-(3-methyl-3H-benzimidazole-5-carbonyl)-piperidine-1-carbonyl]-amino}-benzoic Acid], the IC50 (TNKS2) is reported as 3 nM, the IC50 (TNKS1) is reported as 3.4 nM and the EC50 (Tankyrases) is reported as 4.75e-06 M.
CN(C(=O)N1CCC(C(=O)c2ccc3c(c2)ncn3C)CC1)c1ccc(C(=O)O)cc1 [Compound C30, 4-{Methyl-[4-(1-methyl-1H-benzimidazole-5-carbonyl)-piperidine-1-carbonyl]-amino}-benzoic Acid] showed an IC50 (TNKS2) of 10 nM, an IC50 (TNKS1) of 17 nM and an EC50 (Tankyrases) of 6e-06 M.
In the case of CN(C(=O)N1CCC(C(=O)c2ccc3c(c2)ncn3C)CC1)c1cccc(C(=O)O)c1 [Compound C32, 3-{Methyl-[4-(1-methyl-1H-benzimidazole-5-carbonyl)-piperidine-1-carbonyl]-amino}-benzoic Acid], the IC50 (TNKS2) is reported as 7.8 nM and the IC50 (TNKS1) is reported as 19 nM.
